Assay results reported in US11878975B2, “Substituted indole compounds useful as TLR inhibitors” (BRISTOL-MYERS SQUIBB COMPANY, priority 2017, dated 2024).

Columns and labels:
Format in all cases: cell-based
human TLR7 = target: T1, human TLR7 (Homo sapiens, UniProt Q9NYK1); test: TLR7 inhibition reporter assay (HEK-Blue cells, SEAP reporter, gardiquimod stimulation); conditions: HEK-Blue cells overexpressing human TLR7, SEAP reporter, gardiquimod 7.5 μM
T1 construct: host or cells: HEK-Blue cells
T1 sequence (Q9NYK1 27-1049): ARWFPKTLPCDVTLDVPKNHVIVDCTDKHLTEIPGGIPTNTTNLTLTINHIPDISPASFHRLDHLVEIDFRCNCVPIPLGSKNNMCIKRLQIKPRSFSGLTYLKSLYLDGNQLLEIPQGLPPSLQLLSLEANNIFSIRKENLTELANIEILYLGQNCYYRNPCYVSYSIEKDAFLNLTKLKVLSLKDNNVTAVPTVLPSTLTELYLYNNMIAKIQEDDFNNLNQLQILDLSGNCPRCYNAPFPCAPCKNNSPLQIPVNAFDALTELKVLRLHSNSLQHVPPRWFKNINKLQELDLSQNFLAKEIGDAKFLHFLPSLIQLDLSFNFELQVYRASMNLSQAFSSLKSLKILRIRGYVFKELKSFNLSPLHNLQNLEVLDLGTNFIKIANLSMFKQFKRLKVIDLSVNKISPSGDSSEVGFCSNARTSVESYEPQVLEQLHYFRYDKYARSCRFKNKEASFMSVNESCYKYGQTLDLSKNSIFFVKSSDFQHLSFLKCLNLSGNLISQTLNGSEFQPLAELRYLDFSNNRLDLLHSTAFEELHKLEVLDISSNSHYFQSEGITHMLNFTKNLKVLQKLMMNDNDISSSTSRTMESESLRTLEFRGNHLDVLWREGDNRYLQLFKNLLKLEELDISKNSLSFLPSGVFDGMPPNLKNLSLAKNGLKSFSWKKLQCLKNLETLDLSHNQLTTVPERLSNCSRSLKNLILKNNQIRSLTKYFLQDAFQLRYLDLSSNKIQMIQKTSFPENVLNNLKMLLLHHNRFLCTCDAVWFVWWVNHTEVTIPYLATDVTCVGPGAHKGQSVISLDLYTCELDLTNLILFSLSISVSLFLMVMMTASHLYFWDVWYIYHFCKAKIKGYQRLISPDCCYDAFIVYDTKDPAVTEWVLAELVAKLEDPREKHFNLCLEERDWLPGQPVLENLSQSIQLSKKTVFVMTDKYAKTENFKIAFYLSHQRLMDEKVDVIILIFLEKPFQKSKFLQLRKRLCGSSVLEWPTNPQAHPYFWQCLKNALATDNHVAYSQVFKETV
Summary of the method: (§1)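 SEAP readout after 22 h agonist exposure at 37 °C; final agonist levels were 7.5 μM gardiquimod (TLR7), 15.9 μM R848 (TLR8) and 5 nM ODN2006 (TLR9). Inhibitors, spanning 0.05 nM to 50 μM final, were applied 30 min beforehand.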

human TLR8 = target: T2, human TLR8 (Homo sapiens, UniProt Q9NR97); test: TLR8 inhibition reporter assay (HEK-Blue cells, SEAP reporter, R848 stimulation); conditions: HEK-Blue cells overexpressing human TLR8, SEAP reporter, R848 15.9 μM
T2 construct: host or cells: HEK-Blue cells
T2 sequence (Q9NR97 27-1041): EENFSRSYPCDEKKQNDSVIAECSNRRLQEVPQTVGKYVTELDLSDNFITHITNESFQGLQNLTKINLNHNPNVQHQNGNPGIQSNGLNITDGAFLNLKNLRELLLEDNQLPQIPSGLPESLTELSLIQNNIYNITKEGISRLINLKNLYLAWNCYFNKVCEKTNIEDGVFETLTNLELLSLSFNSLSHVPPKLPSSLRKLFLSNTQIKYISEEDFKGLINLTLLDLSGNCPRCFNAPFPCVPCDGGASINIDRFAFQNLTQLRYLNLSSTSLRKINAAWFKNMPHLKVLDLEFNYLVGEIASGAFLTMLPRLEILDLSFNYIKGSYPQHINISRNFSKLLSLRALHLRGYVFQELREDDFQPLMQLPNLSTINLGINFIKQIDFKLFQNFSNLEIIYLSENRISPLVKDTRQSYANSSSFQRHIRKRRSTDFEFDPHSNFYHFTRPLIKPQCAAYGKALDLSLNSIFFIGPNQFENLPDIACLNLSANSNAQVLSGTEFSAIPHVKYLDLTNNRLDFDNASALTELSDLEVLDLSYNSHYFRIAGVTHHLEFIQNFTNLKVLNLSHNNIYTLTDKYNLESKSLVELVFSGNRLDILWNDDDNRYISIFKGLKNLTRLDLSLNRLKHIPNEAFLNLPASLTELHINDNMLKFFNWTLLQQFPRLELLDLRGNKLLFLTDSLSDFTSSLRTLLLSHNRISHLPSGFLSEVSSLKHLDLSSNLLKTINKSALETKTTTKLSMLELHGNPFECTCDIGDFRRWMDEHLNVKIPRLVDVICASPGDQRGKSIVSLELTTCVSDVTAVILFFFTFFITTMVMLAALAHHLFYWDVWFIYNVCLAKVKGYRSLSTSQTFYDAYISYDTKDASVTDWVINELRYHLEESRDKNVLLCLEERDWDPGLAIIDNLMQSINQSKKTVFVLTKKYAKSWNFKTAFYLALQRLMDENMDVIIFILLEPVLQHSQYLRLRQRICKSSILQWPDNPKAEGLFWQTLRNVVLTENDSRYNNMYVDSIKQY
Summary of the method: as §1

human TLR9 = target: T3, human TLR9 (Homo sapiens, UniProt Q9NR96); test: TLR9 inhibition reporter assay (HEK-Blue cells, SEAP reporter, ODN2006 stimulation); conditions: HEK-Blue cells overexpressing human TLR9, SEAP reporter, ODN2006 5 nM
T3 construct: host or cells: HEK-Blue cells
T3 sequence (Q9NR96 26-1032): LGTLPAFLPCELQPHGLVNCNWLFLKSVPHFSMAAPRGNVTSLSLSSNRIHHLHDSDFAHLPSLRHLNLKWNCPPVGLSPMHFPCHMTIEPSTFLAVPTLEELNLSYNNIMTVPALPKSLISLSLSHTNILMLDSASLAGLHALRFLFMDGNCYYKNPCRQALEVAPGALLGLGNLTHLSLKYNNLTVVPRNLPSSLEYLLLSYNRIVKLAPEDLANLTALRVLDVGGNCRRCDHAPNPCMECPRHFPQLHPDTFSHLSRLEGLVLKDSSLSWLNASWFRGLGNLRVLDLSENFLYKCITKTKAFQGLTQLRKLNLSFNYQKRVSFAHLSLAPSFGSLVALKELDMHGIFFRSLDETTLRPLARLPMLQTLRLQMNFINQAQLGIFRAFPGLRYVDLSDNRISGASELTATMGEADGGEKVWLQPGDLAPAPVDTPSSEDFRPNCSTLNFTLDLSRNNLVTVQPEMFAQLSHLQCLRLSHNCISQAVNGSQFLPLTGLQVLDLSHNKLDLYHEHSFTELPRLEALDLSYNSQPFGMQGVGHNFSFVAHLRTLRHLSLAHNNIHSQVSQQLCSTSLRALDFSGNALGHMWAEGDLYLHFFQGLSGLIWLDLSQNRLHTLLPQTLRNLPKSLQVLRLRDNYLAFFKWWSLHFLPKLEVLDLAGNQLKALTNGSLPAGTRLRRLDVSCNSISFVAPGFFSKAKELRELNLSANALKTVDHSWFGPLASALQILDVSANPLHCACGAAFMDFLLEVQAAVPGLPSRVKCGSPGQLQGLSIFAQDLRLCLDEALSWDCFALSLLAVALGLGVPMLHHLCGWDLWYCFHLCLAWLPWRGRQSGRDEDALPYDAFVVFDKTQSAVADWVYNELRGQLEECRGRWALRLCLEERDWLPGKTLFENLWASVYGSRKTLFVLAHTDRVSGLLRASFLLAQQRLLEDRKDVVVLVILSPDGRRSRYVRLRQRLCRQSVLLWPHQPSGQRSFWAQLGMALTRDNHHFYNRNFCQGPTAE
Summary of the method: as §1

Row | Compound | IC50 (human TLR7) [nM] | IC50 (human TLR8) [nM] | IC50 (human TLR9) [nM]
1 | COc1cc(-c2[nH]c3ccc(C4CCC(N(C)CCC(F)(F)F)CC4)cc3c2C(C)C)cn2ncnc12 (stereo not drawn) [Example 82] | 7 | 23 | 5770
2 | CCN(C)C1CCC(c2ccc3[nH]c(-c4cn5ncnc5c(C)c4C)c(C(C)C)c3c2)CC1 (stereo not drawn) [Example 88] | 2 | 4.7 | 1980
3 | CNC1CCC(c2ccc3[nH]c(-c4cn5ncnc5c(C)c4C)c(C(C)C)c3c2)CC1 (stereo not drawn) [Example 89] | 0.23 | 0.58 | 1320
4 | Cc1c(-c2[nH]c3ccc(C4CCC(N5CC6(COC6)C5)CC4)cc3c2C(C)C)cn2ncnc2c1C (stereo not drawn) [Example 95] | 2 | 3.6 | 1820
5 | COc1cc(-c2[nH]c3ccc(C4CCC(N5CC6(COC6)C5)CC4)cc3c2C(C)C)cn2ncnc12 (stereo not drawn) [Example 96] | 2 | 3.3 | 1740
6 | Cc1cc(-c2[nH]c3ccc(C4CCC(N5CCOCC5)CC4)cc3c2C(C)C)cn2ncnc12 (stereo not drawn) [Example 102] | 0.23 | 0.71 | 1890
7 | Cc1c(-c2[nH]c3ccc(C4CCC(N(C)C)CC4)cc3c2C(C)C)cn2ncnc2c1C (stereo not drawn) [Example 105] | 0.75 | 1.8 | 2070
8 | COc1cc(-c2[nH]c3ccc(C4CCC(NCC(N)=O)CC4)cc3c2C(C)C)cn2ncnc12 (stereo not drawn) [Example 107] | 0.22 | 1.5 | 1390
9 | Cc1c(-c2[nH]c3ccc(C4CCC(NCC(C)(C)O)CC4)cc3c2C(C)C)cn2ncnc2c1C (stereo not drawn) [Example 112] | 6 | 2 | 2320
10 | COc1cc(-c2[nH]c3ccc(C4CCC(NS(C)(=O)=O)CC4)cc3c2C(C)C)cn2ncnc12 (stereo not drawn) [Example 117, N-(4-(3-isopropyl-2-(8-methoxy-[1,2,4]triazolo[1,5-a]pyridin-6-yl)-1H-indol-5-yl)cyclohexyl)methanesulfonamide] | 0.7 | 9.8 | 14100
11 | COc1cc(-c2[nH]c3ccc(C4CCC(NC(=O)CC(F)(F)F)CC4)cc3c2C(C)C)cn2ncnc12 (stereo not drawn) [Example 118, 3,3,3-trifluoro-N-(4-(3-isopropyl-2-(8-methoxy-[1,2,4]triazolo[1,5-a]pyridin-6-yl)-1H-indol-5-yl)cyclohexyl)propanamide] | 2 | 22 | 15600

Results, then the molecule that gave them:

Row | IC50 (human TLR7) [nM] | IC50 (human TLR8) [nM] | IC50 (human TLR9) [nM] | Compound
12 | 0.85 | 2.1 | 1440 | COc1cc(-c2[nH]c3ccc(C4CCC(N5CC6(COC6)C5)CC4)cc3c2C(C)C)cn2ncnc12 (stereo not drawn) [Example 80]
13 | 17 | 104 | 25500 | COc1cc(-c2[nH]c3ccc(C4CCC(N(C)CC(F)F)CC4)cc3c2C(C)C)cn2ncnc12 (stereo not drawn) [Example 81]
14 | 0.32 | 0.63 | 1910 | CCN(C)C1CCC(c2ccc3[nH]c(-c4cn5ncnc5c(C)c4C)c(C(C)C)c3c2)CC1 (stereo not drawn) [Example 87]
15 | 0.48 | 1.7 | 1790 | COc1cc(-c2[nH]c3ccc(C4CCC(NC5COC5)CC4)cc3c2C(C)C)cn2ncnc12 (stereo not drawn) [Example 90]
16 | 0.86 | 2.7 | 2700 | CNC1CCC(c2ccc3[nH]c(-c4cn5ncnc5c(C)c4C)c(C(C)C)c3c2)CC1 (stereo not drawn) [Example 91]
17 | 7 | 53 | 15300 | COc1cc(-c2[nH]c3ccc(C4CCC(N(C)OC)CC4)cc3c2C(C)C)cn2ncnc12 (stereo not drawn) [Example 99]
18 | 32 | 431 | 14600 | COc1cc(-c2[nH]c3ccc(C4CCC(N(C)OC)CC4)cc3c2C(C)C)cn2ncnc12 (stereo not drawn) [Example 100]
19 | 2 | 7.4 | 4120 | Cc1cc(-c2[nH]c3ccc(C4CCC(N5CCOCC5)CC4)cc3c2C(C)C)cn2ncnc12 (stereo not drawn) [Example 103]
20 | 3 | 6.5 | 6410 | Cc1cc(-c2[nH]c3ccc(C4CCC(NCC(C)(C)O)CC4)cc3c2C(C)C)cn2ncnc12 (stereo not drawn) [Example 104]
21 | 0.67 | 0.28 | 1390 | Cc1c(-c2[nH]c3ccc(C4CCC(NCC(C)(C)O)CC4)cc3c2C(C)C)cn2ncnc2c1C (stereo not drawn) [Example 106]
22 | 0.83 | 4.1 | 1600 | COc1cc(-c2[nH]c3ccc(C4CCC(NCC(N)=O)CC4)cc3c2C(C)C)cn2ncnc12 (stereo not drawn) [Example 109]
23 | 1 | 2.6 | 4100 | Cc1c(-c2[nH]c3ccc(C4CCC(N(C)C)CC4)cc3c2C(C)C)cn2ncnc2c1C (stereo not drawn) [Example 111]
24 | 1 | 0.79 | 3250 | Cc1c(-c2[nH]c3ccc(C4CCC(N5CC6(COC6)C5)CC4)cc3c2C(C)C)cn2ncnc2c1C (stereo not drawn) [Example 113]
25 | 0.95 | 7.2 | 976 | Cc1cc(-c2[nH]c3ccc(C4CCC(NC(=O)CN(C)C)CC4)cc3c2C(C)C)cc(C)n1 (stereo not drawn) [Example 119]
